Data published in patent US10670605B2, “Cysteine reactive probes and uses thereof” (The Scripps Research Institute, priority 2015, dated 2020).
Counter-ions that a name gives are not always drawn.

How the values were obtained:
Assay in all cases: isoTOP-ABPP of compound-treated primary human T cells
Type in all cases: cell-based
[1] = target: Cys residues in primary human T cells (Homo sapiens, UniProt O14933); settings: UBE2L6 C98 (O14933)
[2] = target: T1, Cys residues in primary human T cells (Homo sapiens, UniProt O95336); settings: PGLS C32 (095336)
T1 sequence (O95336 1-258): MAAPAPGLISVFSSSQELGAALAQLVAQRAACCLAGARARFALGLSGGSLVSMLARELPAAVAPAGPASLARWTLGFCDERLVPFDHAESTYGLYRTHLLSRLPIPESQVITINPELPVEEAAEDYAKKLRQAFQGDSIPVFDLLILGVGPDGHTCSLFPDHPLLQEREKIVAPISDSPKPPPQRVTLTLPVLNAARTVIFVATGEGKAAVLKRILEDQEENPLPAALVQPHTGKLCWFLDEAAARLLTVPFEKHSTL

[3] = target: Cys residues in primary human T cells (Homo sapiens, UniProt P18583); settings: SON C92 (P18583)
Sequence of Cys residues in primary human T cells (Homo sapiens, UniProt P18583) (P18583 whole entry): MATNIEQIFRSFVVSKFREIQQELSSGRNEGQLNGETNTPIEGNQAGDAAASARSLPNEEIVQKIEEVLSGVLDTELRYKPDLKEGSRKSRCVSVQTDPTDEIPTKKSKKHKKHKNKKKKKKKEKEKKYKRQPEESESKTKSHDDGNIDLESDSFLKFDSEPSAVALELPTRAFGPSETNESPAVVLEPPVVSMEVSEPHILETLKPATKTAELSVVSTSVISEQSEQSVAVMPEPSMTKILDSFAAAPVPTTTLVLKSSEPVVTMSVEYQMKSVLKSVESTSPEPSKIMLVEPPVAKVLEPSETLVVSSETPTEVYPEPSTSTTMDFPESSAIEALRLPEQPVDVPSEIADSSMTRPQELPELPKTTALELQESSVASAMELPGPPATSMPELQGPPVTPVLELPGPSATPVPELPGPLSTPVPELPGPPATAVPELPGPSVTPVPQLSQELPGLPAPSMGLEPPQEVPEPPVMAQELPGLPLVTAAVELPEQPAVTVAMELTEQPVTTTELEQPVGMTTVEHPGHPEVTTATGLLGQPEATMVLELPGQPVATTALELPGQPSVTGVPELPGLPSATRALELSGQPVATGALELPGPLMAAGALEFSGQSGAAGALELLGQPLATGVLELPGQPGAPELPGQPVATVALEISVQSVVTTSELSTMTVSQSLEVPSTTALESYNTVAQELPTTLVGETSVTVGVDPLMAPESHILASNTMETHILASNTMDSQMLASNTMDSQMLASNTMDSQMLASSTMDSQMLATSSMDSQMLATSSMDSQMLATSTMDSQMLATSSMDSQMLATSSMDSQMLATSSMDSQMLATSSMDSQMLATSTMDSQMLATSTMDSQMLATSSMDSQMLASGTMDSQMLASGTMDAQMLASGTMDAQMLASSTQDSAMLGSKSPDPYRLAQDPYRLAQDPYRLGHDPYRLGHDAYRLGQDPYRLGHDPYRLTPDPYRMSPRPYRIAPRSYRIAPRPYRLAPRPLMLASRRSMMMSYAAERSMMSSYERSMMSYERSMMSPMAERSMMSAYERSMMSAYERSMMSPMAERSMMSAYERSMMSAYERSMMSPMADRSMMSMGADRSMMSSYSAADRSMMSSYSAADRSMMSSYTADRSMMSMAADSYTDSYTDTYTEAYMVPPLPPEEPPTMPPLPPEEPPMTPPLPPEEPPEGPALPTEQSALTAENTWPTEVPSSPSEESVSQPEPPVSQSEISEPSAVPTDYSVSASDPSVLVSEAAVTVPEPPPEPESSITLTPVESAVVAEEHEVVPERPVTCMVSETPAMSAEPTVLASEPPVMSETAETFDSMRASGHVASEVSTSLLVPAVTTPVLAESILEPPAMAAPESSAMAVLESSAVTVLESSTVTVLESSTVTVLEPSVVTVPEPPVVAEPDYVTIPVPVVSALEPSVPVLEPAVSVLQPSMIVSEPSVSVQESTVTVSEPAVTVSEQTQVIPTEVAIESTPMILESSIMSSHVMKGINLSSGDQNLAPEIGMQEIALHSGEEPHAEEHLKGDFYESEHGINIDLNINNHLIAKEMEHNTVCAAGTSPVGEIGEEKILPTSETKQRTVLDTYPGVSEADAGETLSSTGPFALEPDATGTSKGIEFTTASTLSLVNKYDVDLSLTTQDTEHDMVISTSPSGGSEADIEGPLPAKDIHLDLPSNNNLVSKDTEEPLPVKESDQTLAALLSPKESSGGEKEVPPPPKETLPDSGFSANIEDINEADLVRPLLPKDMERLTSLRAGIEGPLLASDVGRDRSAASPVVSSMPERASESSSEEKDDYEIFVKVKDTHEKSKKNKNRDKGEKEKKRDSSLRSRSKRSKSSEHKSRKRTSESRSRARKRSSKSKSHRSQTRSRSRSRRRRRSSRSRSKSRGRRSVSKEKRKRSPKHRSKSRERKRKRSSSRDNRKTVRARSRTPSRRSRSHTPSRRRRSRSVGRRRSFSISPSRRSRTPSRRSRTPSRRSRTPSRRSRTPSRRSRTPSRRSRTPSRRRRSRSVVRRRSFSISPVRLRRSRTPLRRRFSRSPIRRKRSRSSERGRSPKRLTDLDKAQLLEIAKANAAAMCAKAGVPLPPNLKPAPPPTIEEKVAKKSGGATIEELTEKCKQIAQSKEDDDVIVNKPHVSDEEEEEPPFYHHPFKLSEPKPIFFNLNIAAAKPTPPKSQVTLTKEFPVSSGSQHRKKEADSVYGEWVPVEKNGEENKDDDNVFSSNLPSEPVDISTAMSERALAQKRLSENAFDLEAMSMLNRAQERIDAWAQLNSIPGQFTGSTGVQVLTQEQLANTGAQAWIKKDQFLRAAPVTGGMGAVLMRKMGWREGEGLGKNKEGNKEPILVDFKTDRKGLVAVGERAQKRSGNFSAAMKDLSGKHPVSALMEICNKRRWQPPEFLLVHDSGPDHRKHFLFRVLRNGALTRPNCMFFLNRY

[4] = target: T2, Cys residues in primary human T cells (Homo sapiens, UniProt Q6IA69); settings: NADSYN1 C428 (Q6IA69)
T2 sequence (Q6IA69 1-706): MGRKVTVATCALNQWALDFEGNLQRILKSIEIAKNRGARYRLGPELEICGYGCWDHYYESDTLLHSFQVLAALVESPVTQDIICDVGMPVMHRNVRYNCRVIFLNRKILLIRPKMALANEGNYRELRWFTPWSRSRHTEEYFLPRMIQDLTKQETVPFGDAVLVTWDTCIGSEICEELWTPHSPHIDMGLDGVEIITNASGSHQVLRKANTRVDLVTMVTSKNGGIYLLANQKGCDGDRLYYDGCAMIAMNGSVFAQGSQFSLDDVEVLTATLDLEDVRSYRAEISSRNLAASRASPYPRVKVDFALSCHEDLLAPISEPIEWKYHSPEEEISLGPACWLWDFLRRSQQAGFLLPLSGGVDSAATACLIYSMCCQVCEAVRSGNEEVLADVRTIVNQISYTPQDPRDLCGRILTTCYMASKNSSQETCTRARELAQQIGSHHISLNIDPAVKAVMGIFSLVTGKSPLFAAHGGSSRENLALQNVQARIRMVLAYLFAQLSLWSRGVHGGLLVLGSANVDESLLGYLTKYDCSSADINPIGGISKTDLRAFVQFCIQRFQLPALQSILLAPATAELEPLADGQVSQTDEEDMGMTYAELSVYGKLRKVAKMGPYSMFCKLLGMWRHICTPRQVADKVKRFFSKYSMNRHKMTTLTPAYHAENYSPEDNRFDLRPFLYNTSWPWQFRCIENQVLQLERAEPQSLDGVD

[5] = target: T3, Cys residues in primary human T cells (Homo sapiens, UniProt Q96I15); settings: SCLY C22 (Q96115)
T3 sequence (Q96I15 1-445): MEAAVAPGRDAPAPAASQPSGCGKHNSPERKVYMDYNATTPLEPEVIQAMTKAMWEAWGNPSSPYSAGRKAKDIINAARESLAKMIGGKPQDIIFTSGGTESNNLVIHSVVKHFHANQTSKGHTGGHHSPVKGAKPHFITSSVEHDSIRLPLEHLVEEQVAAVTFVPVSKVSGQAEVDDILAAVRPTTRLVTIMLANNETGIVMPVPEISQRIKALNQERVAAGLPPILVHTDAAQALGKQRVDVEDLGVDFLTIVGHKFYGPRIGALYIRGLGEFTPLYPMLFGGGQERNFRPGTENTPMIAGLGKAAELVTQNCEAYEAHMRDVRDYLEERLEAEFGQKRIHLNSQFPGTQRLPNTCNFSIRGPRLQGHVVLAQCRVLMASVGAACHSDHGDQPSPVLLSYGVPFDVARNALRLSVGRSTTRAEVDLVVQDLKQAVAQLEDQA

[6] = target: T4, Cys residues in primary human T cells (Homo sapiens, UniProt Q9NRG0); settings: CHRAC1 C55 (Q9NRG0)
T4 sequence (Q9NRG0 1-131): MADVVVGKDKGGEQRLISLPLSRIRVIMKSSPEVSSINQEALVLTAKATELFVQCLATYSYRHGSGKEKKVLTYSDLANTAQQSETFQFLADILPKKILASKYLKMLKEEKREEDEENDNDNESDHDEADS

[7] = target: Cys residues in primary human T cells (Homo sapiens, UniProt Q9NWZ3); settings: IRAK4 C13 (Q9NWZ3)
Sequence of Cys residues in primary human T cells (Homo sapiens, UniProt Q9NWZ3) (Q9NWZ3 whole entry): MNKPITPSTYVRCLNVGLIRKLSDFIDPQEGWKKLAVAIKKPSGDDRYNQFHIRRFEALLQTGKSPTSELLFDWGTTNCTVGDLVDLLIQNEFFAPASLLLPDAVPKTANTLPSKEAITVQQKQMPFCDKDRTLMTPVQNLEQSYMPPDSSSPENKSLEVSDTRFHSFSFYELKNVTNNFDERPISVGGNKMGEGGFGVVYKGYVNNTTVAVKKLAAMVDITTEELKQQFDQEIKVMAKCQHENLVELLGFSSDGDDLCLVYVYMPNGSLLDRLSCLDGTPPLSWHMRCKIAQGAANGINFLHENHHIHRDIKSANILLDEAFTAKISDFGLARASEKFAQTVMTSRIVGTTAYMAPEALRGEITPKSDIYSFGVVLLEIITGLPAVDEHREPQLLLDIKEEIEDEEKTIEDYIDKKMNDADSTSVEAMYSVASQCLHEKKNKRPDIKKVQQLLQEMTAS

[8] = target: T5, Cys residues in primary human T cells (Homo sapiens, UniProt Q9UL40); settings: ZNF346 C68 (Q9UL40)
T5 sequence (Q9UL40 1-294): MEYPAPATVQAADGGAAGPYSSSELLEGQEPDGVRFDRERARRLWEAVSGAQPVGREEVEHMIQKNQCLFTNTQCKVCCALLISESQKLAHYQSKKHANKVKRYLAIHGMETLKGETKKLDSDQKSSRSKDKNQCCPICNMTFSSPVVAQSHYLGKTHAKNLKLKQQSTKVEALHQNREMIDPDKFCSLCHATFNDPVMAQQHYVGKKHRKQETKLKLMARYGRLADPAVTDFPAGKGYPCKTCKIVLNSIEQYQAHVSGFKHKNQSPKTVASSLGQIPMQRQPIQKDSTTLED

Sequence of Cys residues in primary human T cells (Homo sapiens, UniProt O14933) (O14933 whole entry): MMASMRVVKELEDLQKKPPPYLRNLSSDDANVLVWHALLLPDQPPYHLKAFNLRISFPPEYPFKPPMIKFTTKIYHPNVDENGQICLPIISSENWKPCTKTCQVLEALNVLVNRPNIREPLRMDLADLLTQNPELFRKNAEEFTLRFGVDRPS

COC(=O)/C=C/C(=O)OC [DMF, dimethyl fumarate]
R value (DMSO/DMF) ([1]; DMF 10 μM 4h): 1.49 | R value (DMSO/DMF) ([1]; DMF 50 μM 1h): 2.44 | R value (DMSO/DMF) ([1]; DMF 50 μM 2h): 2.92 | R value (DMSO/DMF) ([1]; DMF 50 μM 4h): 12.55 | R value (DMSO/DMF) ([2]; DMF 10 μM 4h): 1.9 | R value (DMSO/DMF) ([2]; DMF 25 μM 4h): 5.32 | R value (DMSO/DMF) ([2]; DMF 50 μM 1h): 3.42 | R value (DMSO/DMF) ([2]; DMF 50 μM 2h): 9.49 | R value (DMSO/DMF) ([2]; DMF 50 μM 4h): 11.51 | R value (DMSO/DMF) ([3]; DMF 50 μM 1h): 2.5 | R value (DMSO/DMF) ([3]; DMF 50 μM 2h): 6.31 | R value (DMSO/DMF) ([3]; DMF 50 μM 4h): 4.17 | R value (DMSO/DMF) ([4]; DMF 10 μM 4h): 1.43 | R value (DMSO/DMF) ([4]; DMF 50 μM 1h): 1.81 | R value (DMSO/DMF) ([4]; DMF 50 μM 2h): 2.31 | R value (DMSO/DMF) ([4]; DMF 50 μM 4h): 20 | R value (DMSO/DMF) ([5]; DMF 10 μM 4h): 1.31 | R value (DMSO/DMF) ([5]; DMF 25 μM 4h): 2.16 | R value (DMSO/DMF) ([5]; DMF 50 μM 1h): 1.9 | R value (DMSO/DMF) ([5]; DMF 50 μM 2h): 2.16 | R value (DMSO/DMF) ([5]; DMF 50 μM 4h): 4.04 | R value (DMSO/DMF) ([6]; DMF 10 μM 4h): 5.07 | R value (DMSO/DMF) ([6]; DMF 50 μM 1h): 12.59 | R value (DMSO/DMF) ([6]; DMF 50 μM 2h): 11.72 | R value (DMSO/DMF) ([7]; DMF 50 μM 1h): 8.3 | R value (DMSO/DMF) ([7]; DMF 50 μM 4h): 20 | R value (DMSO/DMF) ([8]; DMF 10 μM 4h): 1.98 | R value (DMSO/DMF) ([8]; DMF 50 μM 1h): 2.5 | R value (DMSO/DMF) ([8]; DMF 50 μM 2h): 3.91 | R value (DMSO/DMF) ([8]; DMF 50 μM 4h): 4.6
